Measured values reported in article PMC12534982 (Journal of Experimental & Clinical Cancer Research : CR, 2025).

How the values were obtained:
SW620 cells [1] = test: Complex I- and complex II-dependent respiration (permeabilized cells); assay type: cell-based, human; conditions: 25 µM, 24 h
Description: Following treatment, cells were detached using trypsin–EDTA, washed with PBS, and resuspended in MiR05 media (composed of 110 mM sucrose, 60 mM potassium-lactobionate, 0.5 mM EGTA, 3 mM MgCl2·6H2O, 20 mM taurine, 10 mM KH2PO4, 20 mM HEPES adjusted to pH 7.1 with KOH at 37 °C, and 1 g/L BSA) at a concentration of 5 × 10^5 cells/mL. The cells were then transferred into 2 mL Oxygraph chambers for real-time measurement of OCR. Initial permeabilization was achieved using 7 μg of digitonin, followed by the sequential addition of substrates and inhibitors: 5 mM ADP, 2 mM malate, 10 μM cytochrome c, 5 mM pyruvate, 10 mM glutamate, 10 mM succinate, 0.5 μM rotenone, and 2.5 μM antimycin A. Mitochondrial membrane integrity was confirmed through the addition of cytochrome c (10 μM), with observed changes in OCR remaining below 10%. Complex I-mediated respiration was evaluated following the addition of complex I substrates (malate/pyruvate/glutamate), while complex II-mediated respiration was assessed in the presence of the complex II substrate (succinate) and the complex I inhibitor (rotenone). Residual oxygen consumption after the addition of antimycin A was subtracted from all the results to yield mitochondria-specific rates. […] Oxygen consumption rates were expressed as picomoles (pmol) per second per million cells (Mill) and normalized to the mitochondrial copy number in each sample.

SW620 cells [2] = test: Glutathione assay (GSH/GSSG); assay type: cell-based, human; conditions: 25 µM, 24 h
Description: Optical density measurements were recorded at 450 nm using a Victor Multilabel Plate Reader.

SW620 cells [3] = test: DHODH-dependent respiration (permeabilized cells); assay type: cell-based, human; conditions: 24 h; NK-A 17E-233I 25 µM, Brequinar 100 µM; excess exogenous DHO
Description: Cells were resuspended in MiR05 medium and transferred into the chambers of the Oxygraph-2k instruments. The OCR in digitonin-permeabilized cells was monitored in the presence of the complex I inhibitor (0.5 μM rotenone), 1 mM DHO, 3 mM ADP, 10 μM cytochrome c, and 30 μM Leflunomide. DHODH-mediated respiration was calculated by subtracting the residual respiration rate after the addition of 30 μM Leflunomide from the respiration rate measured in the presence of 0.5 μM rotenone, 1 mM DHO, 3 mM ADP, and 10 μM cytochrome c.

[4] = system: human colorectal cancer cell lines; test: Cell viability assay (CellTiter-Glo); assay type: cell-based; conditions: dose-dependent; 48 h
[5] = system: healthy fibroblasts and keratinocytes; test: Cell viability / morphology in healthy cells; assay type: cell-based, human; conditions: 25 µM, 48 h
Excerpt: Brightfield images were captured using a Leica DMi8 microscope with a 10X or 20X objective (HC PL FLUOTAR 10X/0.45 or 20X/0.75) equipped with a Leica DFC9000GT camera, and processed with a Leica Application Suite X (LAS X) Life Science Microscope Software (v3.5.5.19976, RRID:SCR_013673).

colorectal cancer cells = test: Annexin V-FITC/PI double staining; assay type: cell-based, human; conditions: 25 µM
Description: Cells were harvested as described in the flow cytometry-based cell cycle analysis section. The supernatant was discarded, and the cells were resuspended in 100 μL of cold Annexin buffer (pH 7.4) composed of 18 mL distilled water, 5.5 mg CaCl2, 164 mg NaCl, and 2 mL of 100 mM HEPES. A 1:1 mixture of Annexin V (#130–097-928; Miltenyi Biotec) and propidium iodide (PI, 1 mg/mL) was added to all tubes and incubated in the dark at room temperature for 20 min. Annexin buffer was added, and the samples were analyzed using a CytoFLEX within 1 h. CytExpert and FlowJo software were utilized for data acquisition and analysis.

[6] = system: basal forebrain cholinergic neurons (BFCNs); test: Cytoskeleton immunostaining; assay type: cell-based, mouse; conditions: 24 h
Description: To evaluate DNA damage, cancer cells (1 × 10^3) were cultured in 8-well collagen IV Ibidi chamber slides (#80,822; Ibidi) for 24 h, treated with DMSO or NK-A 17E-233I (25 µM) for an additional 24 h, and then fixed. For assessing the integrity of the cytoskeleton, neuronal cells (BFCNs) were cultured on coverslips for 14 days, while non-neuronal cells (cancer cells) were cultured on coverslips for 24 h. Both neuronal and non-neuronal cells were treated with DMSO or NK-A 17E-233I (1 µM) for 24 h, fixed, and permeabilized as described in [21]. Samples were then blocked (non-neuronal cells with 3% BSA in PBS-T and neuronal cells with 10% BSA in PBS-T) and incubated overnight at 4 °C with the appropriate primary antibodies. Following this, samples were washed with PBS-T and incubated for 1 h with Alexa-488 Phalloidin (#A12379; Invitrogen-ThermoFisher Scientific) to visualize F-actin, along with the corresponding secondary antibodies. The cells were mounted with Ibidi mounting medium containing 4',6-diamidino-2-phenylindole (DAPI, #50011; Ibidi) prior to imaging.
The primary antibodies utilized were: anti–α-tubulin at a 1:1000 dilution (#SC-32293; Santa Cruz), anti–γ-H2AX and anti-Rad51 at 1:500 dilution (#ab22551 and #ab133534, respectively; […]), and anti–microtubule-associated protein 2 (MAP2) at a 1:1000 dilution (#OSM00149W; ThermoFisher Scientific). […]

Structure (SMILES): COc1cc(C)c(Oc2cc(C)cc(O)c2O)c(O)c1 [NK-A 17E-233I]
- OCR supported by complex I and II substrates (SW620 cells [1]): did not alter
- GSH/GSSG ratio (SW620 cells [2]): significantly decreased
- oxidized glutathione (GSSG) levels (SW620 cells [2]): increasing
- reduced glutathione (GSH) levels (SW620 cells [2]): significantly decreased
- DHODH-mediated oxygen consumption rate (SW620 cells [3]): reduced
- viability [4]: reduced the viability
- cytotoxic effects in healthy cells [5]: no similar effects were observed
- late-apoptotic cells (Annexin V-FITC) (colorectal cancer cells; 48 h): significantly increased
- apoptosis with pan-caspase inhibitor Z-VAD-FMK (colorectal cancer cells; Z-VAD-FMK 10 µM, 24 h): abolished its activity
- dendritic and cytoskeletal structures (F-actin, MAP2) [6]: retained their dendritic and cytoskeletal structures
